# Measurements from patent publication US20160060660A1, “BIOTECHNOLOGICAL PRODUCTION OF ITACONIC ACID” (UNIVERSITÉ DU LUXEMBOURG, priority 2013, published 2016).
# Read-outs that look alike come from different tables or passages of the source.
# Assays:
# [1] = tested on: Mycobacterium tuberculosis H37Rv; format: cell-based
# [2] = tested on: Salmonella enterica serovar Typhimurium
# Procedure: Salmonella enterica serovar Typhimurium bacteria were grown in liquid medium as detailed in the text in the presence different concentrations of itaconic acid or cis-aconitate (5, 10, 50, 100 mM). Growth was measured as optical density (OD) at indicated time points.
# [3] = tested on: human PBMCs-derived macrophages; test: NO donor treatment of human PBMCs-derived macrophages, itaconic acid levels; format: cell-based; conditions: 1, 10, 100 μM, with or without LPS, 12 h
# Procedure: Human PBMCs were seeded and differentiated into macrophages as described above. Diethylamine NONOate (DEA NONOate, Sigma), an intracellular NO donor, was added at different concentrations (1, 10, 100 μM) alone or together with LPS (100 μg/ml). After 12 h of incubation, the metabolites were extracted.
# After 12 h, 180 μl of medium was harvested and combined with 20 μl of 1 mM NaOH on ice to stop the dissociation reaction. Levels of nitrite formed from the reaction with H2O were determined using the Griess assay. In brief, 50 μl of medium sample or nitrite IC standard (Sigma) was pipetted in triplicate in a 96-well plate. To each well, equal volumes of 1× Griess Reagent (Sigma) were added. Absorbance was read at 540 nm and nitrite concentrations were calculated.
# [4] = molecular target: T1, Irg1 protein (Mus musculus, UniProt P54987); test: Cis-aconitate decarboxylase activity of extracts and purified fractions from HEK293T cells transfected with pCMV6-Entry-Irg1; format: biochemical; conditions: 1 mM cis-aconitate, 30° C., 40 min
# T1 construct: made in house; host or cells: HEK293T
# T1 sequence (P54987 1-488): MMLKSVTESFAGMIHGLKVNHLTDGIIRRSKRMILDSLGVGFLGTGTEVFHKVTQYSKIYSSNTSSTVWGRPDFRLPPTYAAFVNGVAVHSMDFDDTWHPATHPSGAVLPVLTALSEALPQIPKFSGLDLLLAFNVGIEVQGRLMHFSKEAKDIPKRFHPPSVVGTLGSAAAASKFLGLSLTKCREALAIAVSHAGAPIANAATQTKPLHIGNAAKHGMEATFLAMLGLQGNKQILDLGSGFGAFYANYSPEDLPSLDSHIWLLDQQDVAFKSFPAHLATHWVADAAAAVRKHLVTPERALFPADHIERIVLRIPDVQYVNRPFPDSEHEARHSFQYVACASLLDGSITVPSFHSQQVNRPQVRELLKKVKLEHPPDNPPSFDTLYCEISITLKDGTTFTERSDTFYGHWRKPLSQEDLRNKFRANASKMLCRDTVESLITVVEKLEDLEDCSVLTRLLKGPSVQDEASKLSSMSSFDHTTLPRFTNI
# Procedure: Protein concentration was measured by the Bradford assay using Bradford reagent (Bio-Rad). […] Reactions were stopped by addition of 900 μl methanol/water (8:1) mix. […] (Labconco).
# [5] = molecular target: T2, human IRG1 (Homo sapiens, UniProt A6NK06); test: CAD activity assay, Michaelis-Menten kinetics of purified human IRG1; format: biochemical; conditions: substrate cis-aconitic acid 0 to 1 mmol/l, pH=6.2, 37° C., read-out: Michaelis-Menten constant KM for itaconic acid formation
# T2 construct: made in house
# T2 sequence (A6NK06 1-481): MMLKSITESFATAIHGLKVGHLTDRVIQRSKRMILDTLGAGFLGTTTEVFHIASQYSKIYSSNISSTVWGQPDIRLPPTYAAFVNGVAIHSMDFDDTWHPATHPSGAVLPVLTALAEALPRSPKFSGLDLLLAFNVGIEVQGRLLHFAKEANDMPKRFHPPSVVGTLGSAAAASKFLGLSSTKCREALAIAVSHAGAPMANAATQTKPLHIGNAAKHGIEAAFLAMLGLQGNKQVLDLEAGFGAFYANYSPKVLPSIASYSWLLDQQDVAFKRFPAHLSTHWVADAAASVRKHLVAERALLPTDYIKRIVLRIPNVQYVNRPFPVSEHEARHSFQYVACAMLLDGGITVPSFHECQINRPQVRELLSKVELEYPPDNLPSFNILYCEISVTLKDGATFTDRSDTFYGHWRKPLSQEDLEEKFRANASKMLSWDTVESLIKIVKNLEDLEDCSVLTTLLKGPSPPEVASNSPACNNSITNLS
# Procedure: (§1) The purified proteins were then used for enzyme activity assays. Cis-aconitic acid was used as a substrate at concentrations in the range of 0 to 1 mmol*I^−1 at pH=6.2 and 37° C. To determine the time dependent itaconic acid production, itaconic acid level was measured after 5 and 15 min of incubation. To determine the correlation between itaconic acid production and IRG1 activity, the substrate concentrations were plotted against the rate of itaconic acid formation.
# (§2) Proteins produced in HEK293FT cells, which have been transfected with human and mouse pCMV6-Irg1 overexpression plasmid as well as pCMV6-Entry plasmid, were purified, separated on SDS-Page, detected with western blotting or silver staining and characterized with in-vitro enzyme assays.
# (§3) Enzyme solutions were used from F1 as well as F2 and cis-aconitic acid and citric acid were used as substrates. Sampling took place 5 min and 15 min after enzyme supplementation. 95 μl enzyme solution were transferred into sampling tubes containing 230 μl methanol at −20° C. and centrifuged for 10 min at 4° C. with 16,000×g. 290 μl were dried in glass vials under vacuum and analyzed with GC-MS. […] The kinetic parameter Km of the purified enzymes was determined with Michaelis-Menten model using the statistical tool R (R Development Core Team, 2011).
# [6] = molecular target: T3, murine IRG1 (Mus musculus, UniProt P54987); test: CAD activity assay, Michaelis-Menten kinetics of purified murine IRG1; format: biochemical; conditions: substrate cis-aconitic acid 0 to 1 mmol/l, pH=6.2, 37° C., read-out: Michaelis-Menten constant KM for itaconic acid formation
# T3 construct: made in house
# T3 sequence (P54987 1-488): T1 sequence (P54987 1-488)
# Procedure: as §1, §2, §3
molecule,measurement,setting,value
"O=C(O)/C=C(/CC(=O)O)C(=O)O [cis-aconitate, cis-aconitic acid, reference compound]",effect on M. tuberculosis growth,"[1]; medium supplemented with cis-aconitate, acetate or glycerol",more pronounced growth
same,effect on S. enterica growth,"[2]; medium supplemented with cis-aconitate, acetate",more pronounced growth
"CCN(CC)/[N+]([O-])=N/O.CCNCC [diethylamine NONOate, Diethylamine NONOate]",effect on intracellular itaconic acid levels,[3],could not detect any effect
C=C(CC(=O)O)C(=O)O [itaconic acid],concentration at which growth of M. tuberculosis was completely inhibited,[1],25 to 50 mM
same,effect on M. tuberculosis growth,[1]; glycerol as carbon source,does not affect the bacterial growth
same,concentration inhibiting M. tuberculosis growth,[1]; glycerol with 0.1 μM propionate,5 to 10 mM
same,effect on S. enterica growth,[2]; glucose as carbon source,does not affect the bacterial growth
same,concentration at which significant effects on S. enterica growth were observed,[2]; liquid medium with acetate as unique carbon source,10 mM
FLAG-tagged Irg1 protein: FLAG-tagged Irg1 protein from HEK293T cells transfected with pCMV6-Entry-Irg1; presumably murine Irg1,cis-aconitate decarboxylase activity,[4],catalyzed the conversion of cis-aconitate to itaconic acid
IRG1 human: Flag-tagged human immune-responsive gene 1 protein (SEQ ID NO 2) purified from transfected HEK293T cells,Km,[5],30 µM
IRG1 mouse: Flag-tagged mouse immune-responsive gene 1 protein (SEQ ID NO 4) purified from transfected HEK293T cells,Km,[6],70 µM
